Data as given in US9328099B2, “Cyanomethylpyrazole carboxamides as janus kinase inhibitors” (Merck Sharp & Dohme Corp., priority 2011, dated 2016).

Assays:
JAK1 = JAK1 (Homo sapiens (Human), UniProt P23458); test: Jak Biochemical HTRF Assay, JAK1; conditions: HTRF biochemical assay, GST-tagged catalytic domain; top concentration tested […]; read-out: JAK1 IC50
Description: (§1) Jak Biochemical HTRF Assay Protocol
(§2) Subsequent reagent additions employed an Agilent Bravo.

JAK2 = JAK2 (Homo sapiens (Human), UniProt O60674); test: Jak Biochemical HTRF Assay, JAK2; conditions: HTRF biochemical assay, GST-tagged catalytic domain; top concentration tested […]
Description: as §1, §2

JAK2, sequence (O60674 849-1124): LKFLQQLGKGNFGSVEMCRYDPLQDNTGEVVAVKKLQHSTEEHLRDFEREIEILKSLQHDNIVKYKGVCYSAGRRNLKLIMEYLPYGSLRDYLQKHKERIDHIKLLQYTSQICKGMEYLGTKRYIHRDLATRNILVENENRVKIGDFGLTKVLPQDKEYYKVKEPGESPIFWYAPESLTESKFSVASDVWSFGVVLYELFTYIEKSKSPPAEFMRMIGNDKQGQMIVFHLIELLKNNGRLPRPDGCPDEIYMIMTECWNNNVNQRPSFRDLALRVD
JAK1, sequence (P23458 875-1153): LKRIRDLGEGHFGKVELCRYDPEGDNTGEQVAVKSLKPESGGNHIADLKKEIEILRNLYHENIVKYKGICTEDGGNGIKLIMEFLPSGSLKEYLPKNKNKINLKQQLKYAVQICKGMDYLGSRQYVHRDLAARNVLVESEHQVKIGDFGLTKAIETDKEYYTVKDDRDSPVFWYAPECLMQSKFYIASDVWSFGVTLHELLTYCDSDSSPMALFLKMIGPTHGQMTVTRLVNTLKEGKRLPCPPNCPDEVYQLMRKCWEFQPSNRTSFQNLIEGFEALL

Row | Compound | IC50 (JAK1) [nM] | IC50 (JAK2) [nM]
1 | N#CCC1(n2cc(C(N)=O)c(Nc3ccnc(F)c3)n2)CCN(Cc2cscn2)CC1 [Example 22-25, 1-[4-(cyanomethyl)-1-(1,3-thiazol-4-ylmethyl)piperidin-4-yl]-3-[(2-fluoropyridin-4-yl)amino]-1H-pyrazole-4-carboxamide] | 6 | 208
2 | N#CCC1(n2cc(C(N)=O)c(Nc3ccnc(F)c3)n2)CCN(Cc2cocn2)CC1 [Example 22-26, 1-[4-(cyanomethyl)-1-(1,3-oxazol-4-ylmethyl)piperidin-4-yl]-3-[(2-fluoropyridin-4-yl)amino]-1H-pyrazole-4-carboxamide] | 6 | 117
3 | Cc1cc(CN2CCC(CC#N)(n3cc(C(N)=O)c(Nc4ccnc(F)c4)n3)CC2)no1 [Example 22-27, 1-{4-(cyanomethyl)-1-[(5-methylisoxazol-3-yl)methyl]piperidin-4-yl}-3-[(2-fluoropyridin-4-yl)amino]-1H-pyrazole-4-carboxamide] | 6 | 157
4 | N#CCC1(n2cc(C(N)=O)c(Nc3ccnc(F)c3)n2)CCN(Cc2ncco2)CC1 [Example 22-28, 1-[4-(cyanomethyl)-1-(1,3-oxazol-2-ylmethyl)piperidin-4-yl]-3-[(2-fluoropyridin-4-yl)amino]-1H-pyrazole-4-carboxamide] | 3 | 73
5 | Cn1nccc1CN1CCC(CC#N)(n2cc(C(N)=O)c(Nc3ccnc(F)c3)n2)CC1 [Example 22-29, 1-{4-(cyanomethyl)-1-[(1-methyl-1H-pyrazol-5-yl)methyl]piperidin-4-yl}-3-[(2-fluoropyridin-4-yl)amino]-1H-pyrazole-4-carboxamide] | 2 | 37
6 | Cn1ccc(CN2CCC(CC#N)(n3cc(C(N)=O)c(Nc4ccnc(F)c4)n3)CC2)n1 [Example 22-30, 1-{4-(cyanomethyl)-1-[(1-methyl-1H-pyrazol-3-yl)methyl]piperidin-4-yl}-3-[(2-fluoropyridin-4-yl)amino]-1H-pyrazole-4-carboxamide] | 86 | > 1500
7 | N#CCC1(n2cc(C(N)=O)c(Nc3ccnc(F)c3)n2)CCN(Cc2ccon2)CC1 [Example 22-31, 1-[4-(cyanomethyl)-1-(isoxazol-3-ylmethyl)piperidin-4-yl]-3-[(2-fluoropyridin-4-yl)amino]-1H-pyrazole-4-carboxamide] | 1 | 47
8 | N#CCC1(n2cc(C(N)=O)c(Nc3ccnc(F)c3)n2)CCN(Cc2cccc(F)n2)CC1 [Example 22-32, 1-{4-(cyanomethyl)-1-[(6-fluoropyridin-2-yl)methyl]piperidin-4-yl}-3-[(2-fluoropyridin-4-yl)amino]-1H-pyrazole-4-carboxamide] | 2 | 83
9 | N#CCC1(n2cc(C(N)=O)c(Nc3ccnc(F)c3)n2)CCN(Cc2cccc3ccnn23)CC1 [Example 22-33, 1-[4-(cyanomethyl)-1-(pyrazolo[1,5-a]pyridin-7-ylmethyl)piperidin-4-yl]-3-[(2-fluoropyridin-4-yl)amino]-1H-pyrazole-4-carboxamide] | 2 | 81
10 | N#CCC1(n2cc(C(N)=O)c(Nc3ccnc(F)c3)n2)CCN(Cc2cc3ccccn3n2)CC1 [Example 22-34, 1-[4-(cyanomethyl)-1-(pyrazolo[1,5-a]pyridin-2-ylmethyl)piperidin-4-yl]-3-[(2-fluoropyridin-4-yl)amino]-1H-pyrazole-4-carboxamide] | 8 | 163
11 | N#CCC1(n2cc(C(N)=O)c(Nc3ccnc(F)c3)n2)CCN(Cc2cccnn2)CC1 [Example 22-35, 1-[4-(cyanomethyl)-1-(pyridazin-3-ylmethyl)piperidin-4-yl]-3-[(2-fluoropyridin-4-yl)amino]-1H-pyrazole-4-carboxamide] | 6 | 145
12 | N#CCC1(n2cc(C(N)=O)c(Nc3ccnc(F)c3)n2)CCN(Cc2ccc(F)cn2)CC1 [Example 22-36, 1-{4-(cyanomethyl)-1-[(5-fluoropyridin-2-yl)methyl]piperidin-4-yl}-3-[(2-fluoropyridin-4-yl)amino]-1H-pyrazole-4-carboxamide] | 2 | 97
13 | COC1CC(CN2CCC(CC#N)(n3cc(C(N)=O)c(Nc4ccnc(F)c4)n3)CC2)C1 (stereo not shown) [Example 22-37, 1-{4-(cyanomethyl)-1-[(3-methoxycyclobutyl)methyl]piperidin-4-yl}-3-[(2-fluoropyridin-4-yl)amino]-1H-pyrazole-4-carboxamide] | 88 | > 1500
14 | N#CCC1(n2cc(C(N)=O)c(Nc3ccnc(F)c3)n2)CCN(Cc2cncc(F)c2)CC1 [Example 22-38, 1-{4-(cyanomethyl)-1-[(5-fluoropyridin-3-yl)methyl]piperidin-4-yl}-3-[(2-fluoropyridin-4-yl)amino]-1H-pyrazole-4-carboxamide] | 0.2 | 5
15 | N#CCC1(n2cc(C(N)=O)c(Nc3ccnc(F)c3)n2)CCN(Cc2cc3ccccc3[nH]2)CC1 [Example 22-39, 1-[4-(cyanomethyl)-1-(1H-indol-2-ylmethyl)piperidin-4-yl]-3-[(2-fluoropyridin-4-yl)amino]-1H-pyrazole-4-carboxamide] | 0.2 | 14
16 | Cc1c(CN2CCC(CC#N)(n3cc(C(N)=O)c(Nc4ccnc(F)c4)n3)CC2)cnn1C [Example 22-40, 1-{4-(cyanomethyl)-1-[(1,5-dimethyl-1H-pyrazol-4-yl)methyl]piperidin-4-yl}-3-[(2-fluoropyridin-4-yl)amino]-1H-pyrazole-4-carboxamide] | 23 | 582
17 | N#CCC1(n2cc(C(N)=O)c(Nc3ccnc(F)c3)n2)CCN(Cc2nc3ccccc3[nH]2)CC1 [Example 22-41, 1-[1-(1H-benzimidazol-2-ylmethyl)-4-(cyanomethyl)piperidin-4-yl]-3-[(2-fluoropyridin-4-yl)amino]-1H-pyrazole-4-carboxamide] | 18 | 641
18 | CC1=NOC(CN2CCC(CC#N)(n3cc(C(N)=O)c(Nc4ccnc(F)c4)n3)CC2)C1 (stereo not shown) [Example 22-42, 1-{4-(cyanomethyl)-1-[(3-methyl-4,5-dihydroisoxazol-5-yl)methyl]piperidin-4-yl}-3-[(2-fluoropyridin-4-yl)amino]-1H-pyrazole-4-carboxamide] | 18 | 582
19 | N#CCC1(n2cc(C(N)=O)c(Nc3ccc(F)cc3)n2)CCN(Cc2cc3ccccc3[nH]2)CC1 [Example 22-43, 1-[4-(cyanomethyl)-1-(1H-indol-2-ylmethyl)piperidin-4-yl]-3-[(4-fluorophenyl)amino]-1H-pyrazole-4-carboxamide] | 1 | 64
20 | Cc1cnc(F)c(CN2CCC(CC#N)(n3cc(C(N)=O)c(Nc4ccc(F)cc4)n3)CC2)c1 [Example 22-44, 1-{4-(cyanomethyl)-1-[(2-fluoro-5-methylpyridin-3-yl)methyl]piperidin-4-yl}-3-[(4-fluorophenyl)amino]-1H-pyrazole-4-carboxamide] | 5 | 22
21 | N#CCC1(n2cc(C(N)=O)c(Nc3ccc(F)cc3)n2)CCN(Cc2ccon2)CC1 [Example 22-45, 1-[4-(cyanomethyl)-1-(isoxazol-3-ylmethyl)piperidin-4-yl]-3-[(4-fluorophenyl)amino]-1H-pyrazole-4-carboxamide] | 2 | 34
22 | N#CCC1(n2cc(C(N)=O)c(Nc3ccc(F)cc3)n2)CCN(Cc2cccc(F)n2)CC1 [Example 22-46, 1-{4-(cyanomethyl)-1-[(6-fluoropyridin-2-yl)methyl]piperidin-4-yl}-3-[(4-fluorophenyl)amino]-1H-pyrazole-4-carboxamide] | 3 | 95
23 | N#CCC1(n2cc(C(N)=O)c(Nc3ccc(F)cc3)n2)CCN(Cc2cccnn2)CC1 [Example 22-47, 1-[4-(cyanomethyl)-1-(pyridazin-3-ylmethyl)piperidin-4-yl]-3-[(4-fluorophenyl)amino]-1H-pyrazole-4-carboxamide] | 6 | 100
24 | N#CCC1(n2cc(C(N)=O)c(Nc3ccc(F)cc3)n2)CCN(Cc2ccc(F)cn2)CC1 [Example 22-48, 1-{4-(cyanomethyl)-1-[(5-fluoropyridin-2-yl)methyl]piperidin-4-yl}-3-[(4-fluorophenyl)amino]-1H-pyrazole-4-carboxamide] | 2 | 73
25 | N#CCC1(n2cc(C(N)=O)c(Nc3ccc(F)cc3)n2)CCN(Cc2cncc(F)c2)CC1 [Example 22-49, 1-{4-(cyanomethyl)-1-[(5-fluoropyridin-3-yl)methyl]piperidin-4-yl}-3-[(4-fluorophenyl)amino]-1H-pyrazole-4-carboxamide] | 2 | 29
26 | N#CCC1(n2cc(C(N)=O)c(Nc3ccc(F)cc3)n2)CCN(Cc2cc(F)ccn2)CC1 [Example 22-50, 1-{4-(cyanomethyl)-1-[(4-fluoropyridin-2-yl)methyl]piperidin-4-yl}-3-[(4-fluorophenyl)amino]-1H-pyrazole-4-carboxamide] | 0.6 | 16
27 | N#CCC1(n2cc(C(N)=O)c(Nc3ccc(F)cc3)n2)CCN(Cc2cccnc2)CC1 [Example 22-51, 1-[4-(cyanomethyl)-1-(pyridin-3-ylmethyl)piperidin-4-yl]-3-[(4-fluorophenyl)amino]-1H-pyrazole-4-carboxamide] | 0.4 | 9
28 | N#CCC1(n2cc(C(N)=O)c(Nc3ccc(F)cc3)n2)CCN(Cc2cnccn2)CC1 [Example 22-52, 1-[4-(cyanomethyl)-1-(pyrazin-2-ylmethyl)piperidin-4-yl]-3-[(4-fluorophenyl)amino]-1H-pyrazole-4-carboxamide] | 1 | 25
29 | N#CCC1(n2cc(C(N)=O)c(Nc3ccc(F)cc3)n2)CCN(Cc2ccnc3[nH]ccc23)CC1 [Example 22-53, 1-[4-(cyanomethyl)-1-(1H-pyrrolo[2,3-b]pyridin-4-ylmethyl)piperidin-4-yl]-3-[(4-fluorophenyl)amino]-1H-pyrazole-4-carboxamide] | 4 | 87
